In patent US9080214B2, “Genetic markers for efficacy of iloperidone in the treatment of psychotic symptoms” (Vanda Pharmaceuticals, Inc., priority 2007, dated 2015):

Tested on: individuals diagnosed with schizophrenia
Test: Change in PANSS-N subscale by SNP genotype, patients on iloperidone 24 mg/day b.i.d. for 28 days (MMRM)
Type: in vivo, human
Description: Earlier studies investigated an association between a polymorphism in the CNTF gene and iloperidone efficacy as well as associations between CYP2D6 and KCNQ1 genotypes and changes in QT interval following the administration of iloperidone. The present study involved the genotyping of DNA samples collected from 426 individuals diagnosed with schizophrenia in an attempt to identify additional SNPs associated with iloperidone efficacy. Each sample was genotyped at more than 500,000 SNP loci using the GeneChip® Human Mapping 500K Array Set (Affymetrix, Santa Clara, Calif.) and using assays developed in-house. Approximately half of the participants in the study were administered 24 mg/day of iloperidone, b.i.d., for 28 days. About 25% of the patients were administered ziprasidone. The remaining participants were administered a placebo. Three analyses of the PANSS-T were conducted. 1) A two-step approach where samples were randomly split into 2 groups of iloperidone-treated patients used to discover SNPs associated with changed in PANSS-T (Discovery phase) and a second group to confirm the 100 most significant SNPs (Confirmatory phase). 2) A one-step approach using the Last Observation Carried Forward (LOCF) PANSS-T data of all iloperidone-treated patients. For each SNP, the most parsimonious genetic model (e.g., homozygous for one allele v. all other genotypes [i.e., AA v. AB and BB], heterozygous v. homozygous [i.e., AB v. AA and BB]) was established with respect to iloperidone efficacy using a one-way analysis of variance (ANOVA). 3) A Mixed-effects Model Repeated Measures (MMRM) analysis was subsequently conducted using the best genetic model of each SNP in the MMRM model. MMRM analyses were also conducted with the PANSS subscales PANSS-P, PANSS-N, and PANSS-GP. The SNPs with a statistically significant association in all 3 analyses of PANSS-T, as well as the best of each analysis were considered significant findings and are listed below in Table 1. Results for each of these SNPs with the PANSS-T scales and with the three subscales PANSS-P, PANSS-N, and PANSS-GP are shown in Tables 2, 3, 4, and 5, respectively. […] In the present case of iloperidone efficacy, it is likely that different markers are more specifically associated with one or a few specific clinical symptoms, which is reflected in the improvement measured in separate subscales.

SMILES: COc1cc(C(C)=O)ccc1OCCCN1CCC(c2noc3cc(F)ccc23)CC1 [iloperidone, 1-[4-[3-[4-(6-fluoro-1,2-benzisoxazol-3-yl)-1-piperidinyl]propoxy]-3-methoxyphenyl]ethanone]
- mean of change in PANSS-N (SNP_A-1819750 (CREG1) genotype A_A): −5.35
- mean of change in PANSS-N (SNP_A-1819750 (CREG1) genotype A_B* (lowest response)): −2.01
- mean of change in PANSS-N (SNP_A-1819750 (CREG1) genotype B_B): −4.01
- mean of change in PANSS-N (SNP_A-1819750 (CREG1) genotype nonAB** (highest response)): −4.45
- mean of change in PANSS-N (SNP_A-1860353 (RAP1B) genotype A_A** (highest response)): −11.00
- mean of change in PANSS-N (SNP_A-1860353 (RAP1B) genotype A_B): −2.29
- mean of change in PANSS-N (SNP_A-1860353 (RAP1B) genotype B_B): −2.73
- mean of change in PANSS-N (SNP_A-1860353 (RAP1B) genotype nonAA* (lowest response)): −2.65
- mean of change in PANSS-N (SNP_A-1934663 genotype A_A): −3.38
- mean of change in PANSS-N (SNP_A-1934663 genotype A_B): −3.94
- mean of change in PANSS-N (SNP_A-1934663 genotype B_B* (lowest response)): −2.06
- mean of change in PANSS-N (SNP_A-1934663 genotype nonBB** (highest response)): −3.82
- mean of change in PANSS-N (SNP_A-1973093 (KIAA0040) genotype A_A): −3.32
- mean of change in PANSS-N (SNP_A-1973093 (KIAA0040) genotype A_B* (lowest response)): −1.85
- mean of change in PANSS-N (SNP_A-1973093 (KIAA0040) genotype B_B): −3.46
- mean of change in PANSS-N (SNP_A-1973093 (KIAA0040) genotype nonAB** (highest response)): −3.43
- mean of change in PANSS-N (SNP_A-1975928 (SLC2A9) genotype A_A): −2.87
- mean of change in PANSS-N (SNP_A-1975928 (SLC2A9) genotype A_B): −2.95
- mean of change in PANSS-N (SNP_A-1975928 (SLC2A9) genotype B_B* (lowest response)): 0.62
- mean of change in PANSS-N (SNP_A-1975928 (SLC2A9) genotype nonBB** (highest response)): −2.89
- mean of change in PANSS-N (SNP_A-1987915 (GPR126) genotype A_A): −1.91
- mean of change in PANSS-N (SNP_A-1987915 (GPR126) genotype A_B): −2.03
- mean of change in PANSS-N (SNP_A-1987915 (GPR126) genotype B_B** (highest response)): −4.28
- mean of change in PANSS-N (SNP_A-1987915 (GPR126) genotype nonBB* (lowest response)): −2.00
- mean of change in PANSS-N (SNP_A-2007721 (LOC58486) genotype A_A): 0.51
- mean of change in PANSS-N (SNP_A-2007721 (LOC58486) genotype A_B** (highest response)): −4.73
- mean of change in PANSS-N (SNP_A-2007721 (LOC58486) genotype B_B): −2.33
- mean of change in PANSS-N (SNP_A-2007721 (LOC58486) genotype nonAB* (lowest response)): −2.31
- mean of change in PANSS-N (SNP_A-2044214 (HNT) genotype A_A): −3.32
- mean of change in PANSS-N (SNP_A-2044214 (HNT) genotype A_B* (lowest response)): −2.16
- mean of change in PANSS-N (SNP_A-2044214 (HNT) genotype B_B): −3.05
- mean of change in PANSS-N (SNP_A-2044214 (HNT) genotype nonAB** (highest response)): −3.22
- mean of change in PANSS-N (SNP_A-2048427 (NPAS3) genotype A_A): −4.12
- mean of change in PANSS-N (SNP_A-2048427 (NPAS3) genotype A_B): −4.30
- mean of change in PANSS-N (SNP_A-2048427 (NPAS3) genotype B_B* (lowest response)): −2.27
- mean of change in PANSS-N (SNP_A-2048427 (NPAS3) genotype nonBB** (highest response)): −4.28
- mean of change in PANSS-N (SNP_A-2070454 (NKX2-5) genotype A_A): −1.86
- mean of change in PANSS-N (SNP_A-2070454 (NKX2-5) genotype A_B): −2.40
- mean of change in PANSS-N (SNP_A-2070454 (NKX2-5) genotype B_B** (highest response)): −4.58
- mean of change in PANSS-N (SNP_A-2070454 (NKX2-5) genotype nonBB* (lowest response)): −2.23
- mean of change in PANSS-N (SNP_A-2076797 (NUDT9P1) genotype A_A): −1.75
- mean of change in PANSS-N (SNP_A-2076797 (NUDT9P1) genotype A_B** (highest response)): −4.06
- mean of change in PANSS-N (SNP_A-2076797 (NUDT9P1) genotype B_B): −1.62
- mean of change in PANSS-N (SNP_A-2076797 (NUDT9P1) genotype nonAB* (lowest response)): −1.69
- mean of change in PANSS-N (SNP_A-2103099 (HTR1A) genotype A_A): −4.08
- mean of change in PANSS-N (SNP_A-2103099 (HTR1A) genotype A_B* (lowest response)): −2.09
- mean of change in PANSS-N (SNP_A-2103099 (HTR1A) genotype B_B): −3.40
- mean of change in PANSS-N (SNP_A-2103099 (HTR1A) genotype nonAB** (highest response)): −3.65
- mean of change in PANSS-N (SNP_A-2120958 genotype A_A): −3.15
- mean of change in PANSS-N (SNP_A-2120958 genotype A_B): −2.84
- mean of change in PANSS-N (SNP_A-2120958 genotype B_B* (lowest response)): −1.11
- mean of change in PANSS-N (SNP_A-2120958 genotype nonBB** (highest response)): −3.03
- mean of change in PANSS-N (SNP_A-2170121 (C6) genotype A_A): −2.14
- mean of change in PANSS-N (SNP_A-2170121 (C6) genotype A_B** (highest response)): −4.78
- mean of change in PANSS-N (SNP_A-2170121 (C6) genotype B_B): −2.52
- mean of change in PANSS-N (SNP_A-2170121 (C6) genotype nonAB* (lowest response)): −2.17
- mean of change in PANSS-N (SNP_A-2274533 (LZTS1) genotype A_A** (highest response)): −3.67
- mean of change in PANSS-N (SNP_A-2274533 (LZTS1) genotype A_B): −1.52
- mean of change in PANSS-N (SNP_A-2274533 (LZTS1) genotype B_B): −1.16
- mean of change in PANSS-N (SNP_A-2274533 (LZTS1) genotype nonAA* (lowest response)): −1.44
- mean of change in PANSS-N (SNP_A-2283283 (XKR4) genotype A_A* (lowest response)): −0.95
- mean of change in PANSS-N (SNP_A-2283283 (XKR4) genotype A_B): −3.20
- mean of change in PANSS-N (SNP_A-2283283 (XKR4) genotype B_B): −3.62
- mean of change in PANSS-N (SNP_A-2283283 (XKR4) genotype nonAA** (highest response)): −3.37
- mean of change in PANSS-N (SNP_A-2284243 (GRIA4) genotype A_A): −3.70
- mean of change in PANSS-N (SNP_A-2284243 (GRIA4) genotype A_B): −3.46
- mean of change in PANSS-N (SNP_A-2284243 (GRIA4) genotype B_B* (lowest response)): −0.52
- mean of change in PANSS-N (SNP_A-2284243 (GRIA4) genotype nonBB** (highest response)): −3.55
- mean of change in PANSS-N (SNP_A-4204396 (CDH13) genotype A_A): −3.22
- mean of change in PANSS-N (SNP_A-4204396 (CDH13) genotype A_B): −3.12
- mean of change in PANSS-N (SNP_A-4204396 (CDH13) genotype B_B* (lowest response)): 1.62
- mean of change in PANSS-N (SNP_A-4204396 (CDH13) genotype nonBB** (highest response)): −3.18
- mean of change in PANSS-N (SNP_A-4212785 (PPP1R3B) genotype A_A* (lowest response)): 4.72
- mean of change in PANSS-N (SNP_A-4212785 (PPP1R3B) genotype A_B): −3.06
- mean of change in PANSS-N (SNP_A-4212785 (PPP1R3B) genotype B_B): −3.11
- mean of change in PANSS-N (SNP_A-4212785 (PPP1R3B) genotype nonAA** (highest response)): −3.09
- mean of change in PANSS-N (SNP_A-4230979 (ASB3) genotype A_A): −1.72
- mean of change in PANSS-N (SNP_A-4230979 (ASB3) genotype A_B): −2.02
- mean of change in PANSS-N (SNP_A-4230979 (ASB3) genotype B_B** (highest response)): −4.23
- mean of change in PANSS-N (SNP_A-4230979 (ASB3) genotype nonBB* (lowest response)): −1.96
- mean of change in PANSS-N (SNP_A-4256833 (MLCK) genotype A_A): −3.58
- mean of change in PANSS-N (SNP_A-4256833 (MLCK) genotype A_B* (lowest response)): −0.86
- mean of change in PANSS-N (SNP_A-4256833 (MLCK) genotype B_B): −3.69
- mean of change in PANSS-N (SNP_A-4256833 (MLCK) genotype nonAB** (highest response)): −3.68
- mean of change in PANSS-N (SNP_A-4258279 (RRM1) genotype A_A): −2.57
- mean of change in PANSS-N (SNP_A-4258279 (RRM1) genotype A_B* (lowest response)): −1.09
- mean of change in PANSS-N (SNP_A-4258279 (RRM1) genotype B_B): −3.34
- mean of change in PANSS-N (SNP_A-4258279 (RRM1) genotype nonAB** (highest response)): −3.33
